# Test results taken from EP2623502A1, “NOVEL COMPOUND HAVING STRIGOLACTONE-LIKE ACTIVITY AND USE THEREOF” (Riken, priority 2010, dated 2012).
# Tests used:
# rice d10 variant = test: Tiller (rice branching) inhibitory activity in hydroponic culture; type: in vivo; conditions: for length of the secondary tiller / activity of inhibiting the morphology of the tiller: rice d10 variant; for length of the secondary tiller: compared with untreated d10 variant (Figure 4)
# Protocol: In this Example, a rice d10 variant (Arite et al., Plant J, 51 (6) 1019-1029 (2007)) was used, and the strigolactone-like compound of the present invention was examined for its effects on this variant. […] In this d10 variant, the functions of a strigolactone biosynthetic enzyme are inhibited by the variation of the strigolactone biosynthetic gene so that the amount of endogenous strigolactone is decreased.
# First, rice seeds were sterilized for 30 minutes with 2.5% sodium hypochlorite containing 0.01% Tween-20 and then washed with sterilized water. Then, the seeds were germinated by culture for 2 days in sterilized water of 25°C under dark conditions. The germinated seeds were transferred to a hydroponic culture medium containing 0.6% agar and grown for 6 days under conditions of a 16-hour light period and an 8-hour dark period under a fluorescent light. […] The number of tillers and the length of each tiller were determined. In this context, the test compounds used were the strigolactone-like compounds BPMF, TFTF, CPMF, NPMF, FPMF, and IPMF shown in Figure 1A, NaMF described in Synthesis Example 3, and GR24 as a control at a concentration of 1 µM, 100 nM, or 10 nM.
# In the same way as in Example 1(1), the strigolactone-like compound was examined for its effects on rice tillers.
# In this context, the test compounds used were p-CPMF, m-CPMF, o-CPMF, o-FPMF (1-14), o-BPMF (1-15), p-BPMF, 1-NaphMF (1-16), 2-NaphMF (NaMF), CNMF (1-17), CQMF (1-19), and TeMF (1-18) and GR24 as a control at a concentration of 1 µM or 100 nM. Also, PMF and p-CBMF were used at a concentration of 1 µM.
# In this context, the test compounds used were 2-1 (2,3-DCMF), 2-2 (2,4-DCMF), 2-3 (2,5-DCMF), and 2-4 (2,6-DCMF) at a concentration of 1 µM, 100 nM, or 10 nM and GR24 as a control at a concentration of 1 µM or 100 nM.
# In this context, the test compounds used were p-BPMF, 2,4-DCMF (2-2), o-BBMF (3-1), o-BPMF (1-15), o-CBMF (3-2), o-CPMF, and o-FPMF (1-14) at a concentration of 100 nM or 10 nM, 2-16, 2-6, 2-17, 2-18, and 2-19 at a concentration of 0.1 µM or 1 µM, and GR24 as a control at a concentration of 1 µM or 100 nM.
# [1] = Stability test in water (residual compound by HPLC); type: physicochemical; conditions: 30 days in water at 20°C, read-out: stably present after being left in water
# Protocol: The strigolactone-like compound BPMF was left for 30 days in water at 20°C, and change in its activity was then determined. Briefly speaking, rice was hydroponically cultured in the same way as in the hydroponic rice culture solution test conducted in Example 3, and the amount of a residual compound in the resulting solution was calculated using HPLC. First, the hydroponic culture solution adjusted to a predetermined concentration was collected at regular intervals and filtered through a filter. Then, a predetermined amount (e.g., 10 µl) was analyzed by HPLC. The content was determined on the basis of an area value, and the degree of decomposition was calculated by comparison with a standard.
# [2] = tested on: Arabidopsis thaliana max3 variant; test: Branching inhibitory activity in hydroponic culture; type: in vivo; conditions: for activity of inhibiting the morphology of the tiller of the max3 variant: 5 µM in hydroponic culture solution, 15 days (Figure 6)
# Text: In this Example, the strigolactone-like compound BPMF of the present invention was examined for its effects on an Arabidopsis thaliana max3 variant. The Arabidopsis thaliana max3 variant is a strigolactone-deficient variant, as in the rice d10 variant, and is known to have a larger number of branches (Booker J. et al., Current Biology, 14: 1232-1238 (2004)).
# Briefly speaking, the surfaces of the respective seeds of wild-type Arabidopsis thaliana and the max3 variant were separately sterilized for 5 minutes with a 1% aqueous sodium hypochlorite solution. The thus-treated seeds of each strain were washed five times with sterilized water and allowed to absorb water at 4°C for 1 day under dark conditions. Then, the seeds were inoculated to a 1/2 MS medium containing 1% sucrose and 0.8% agar and cultured at 22°C for 15 days under conditions of a 16-hour day length under a fluorescent light (60 to 70 µmol m^-2 s^-1). […] Nine healthy seedlings were selected from each pot and further hydroponically cultured for 15 days (a total of 30 days) so as to prevent the above-ground part from being wetted by the hydroponic culture solution. The test compounds used were BPMF and GR24 (control). The test compound-containing hydroponic culture solution was replaced every three days.
# endogenous strigolactone = test: Measurement of amount of endogenous strigolactone (LC/MS-MS); type: in vivo, rice (Shiokari); conditions: 24 hours, 0.1 µM, 1 µM or 10 µM
# Protocol: In this Example, the amount of strigolactone exudates from a plant treated with the strigolactone-like compound was measured.
# A sterilized solution I (2.5% sodium hypochlorite and 0.01% Tween-20) was added to rice seeds (Shiokari) and shaken at room temperature for 15 minutes. The sterilized solution I was discarded, and a sterilized solution II (2.5% sodium hypochlorite) was added thereto and shaken at room temperature for 15 minutes. In a clean bench, the sterilized solution II was discarded, and the seeds were washed five times with sterilized water and left standing at 25°C for 2 days in a dark place. Two days later, the germinated seeds were transplanted in an agar medium for hydroponic rice culture and left standing at 25°C for 6 days under conditions of a 16-hour light period and an 8-hour dark period. […]
# To each hydroponic rice culture solution, 200 pg of d1-2'-epi-5-deoxystrigol per 10 mL of the hydroponic rice culture solution was added, followed by extraction with ethyl acetate (3 mL) twice. […] The sample was dried, dissolved in 50% acetonitrile, and analyzed by LC/MS-MS.
# To the rice root dipped in acetone, 200 pg of d1-2'-epi-5-deoxystrigol was added, and the root was then disrupted. […] The sample was dried, dissolved in 50% acetonitrile, and analyzed by LC/MS-MS.
# [3] = in water at 20°C; cited from earlier work
# parasitic weed = test: Parasitic weed germination-inducing activity (result not shown); type: in vivo; conditions: compared with p-BPMF
# Protocol: In this Example, the seeds of a parasitic weed Orobanche minor or Striga hermonthica were used, and the strigolactone-like compound of the present invention was examined for its parasitic weed germination-promoting activity.
# The Striga hermonthica seeds were dipped in a 0.5% sodium hypochlorite solution containing 0.03% Tween and sterilized by treatment for 3 minutes using an ultrasonic generator. The seeds were washed three times with sterilized water and surface-dried at 27°C. Then, approximately 50 seeds were left, for preculture, at room temperature for 10 to 12 days under dark conditions on an 8-mm glass fiber filter paper moistened with 50 µl of sterilized water. A solution of each test compound concentration-adjusted by dissolution in sterilized water was used in bioassay. A filter paper was placed on a 5-cm Petri dish, and 1 ml of the test compound solution or sterilized water for comparison was added thereto. The glass fiber filter paper with the precultured parasitic weed seeds placed thereon was put on the resulting Petri dish and cultured at 30°C for 24 hours, followed by calculation of the germination rate. The test compounds used were the strigolactone-like compound BPMF shown in Figure 1A and GR24 as control at a concentration of 50 µM. […]
# [4] = concentration of 100 nM, Example 10 (Figures 16-1, 16-2)
# [5] = concentration of 100 nM, Example 8 (Figure 14)
smiles,measurement,setting,value
CC1=CC(Oc2ccc(C(F)(F)F)cc2)OC1=O (stereo not shown) [TFTF],length of the secondary tiller,rice d10 variant,obviously inhibited
CC1=CC(Oc2ccc(C#N)cc2C#N)OC1=O (stereo not shown) [2-19],activity of inhibiting the morphology of the tiller,rice d10 variant; [4],high activity
"CC1=CC(Oc2ccc(Br)cc2)OC1=O (stereo not shown) [BPMF, 5-(4-bromophenoxy)-3-methylfuran-2(5H)-one]",remaining at 720 h,[1],≥ 95%
same,activity of inhibiting the morphology of the tiller of the max3 variant,[2],exhibited the activity of inhibiting the morphology of the tiller of the max3 variant
same,morphology of the max3 variant,"[2]; after 30-day growth, 1 µM (Figure 7)",restored its morphology similar to that of the wild-type strain
same,amount of endogenous strigolactone exudates from the rice root to the hydroponic culture solution,endogenous strigolactone; compared with GR24 (Figure 10),"decreased the amount of natural strigolactone synthesized, and this effect was higher than that of GR24"
same,amount of plant natural strigolactone synthesized,endogenous strigolactone; in the hydroponic rice culture solution and the rice root,decreased
same,morphology of the d10 variant,"rice d10 variant; after 12-day growth, 10 µM (Figure 3)",restored its morphology similar to that of the wild-type strain
same,concentration-dependent activity against the rice d10 variant,rice d10 variant; compared with GR24 (Figure 4),"strong activity, which was larger than that of the typical non-natural strigolactone GR24"
same,time-dependent change in the number of tillers,"rice d10 variant; d10 variant, 27, 37 and 47 days after treatment with 1 nM or 10 nM (Figure 5)",more effective and have more persistent activity than GR24
same,length of the secondary tiller,rice d10 variant,obviously inhibited
same,activity of inhibiting the morphology of the tiller,rice d10 variant; concentration of 10 nM (Figure 2),strongest activity
same,activity of inhibiting the morphology of the tiller,"rice d10 variant; concentration of 100 nM, Example 6 (Figures 12-1 to 12-3)",strongest activity
same,activity of inhibiting the morphology of the tiller,rice d10 variant; [4],high activity
CC1=CC(Oc2ccc(C(F)(F)F)cc2C(F)(F)F)OC1=O (stereo not shown) [2-18],activity of inhibiting the morphology of the tiller,rice d10 variant; [4],high activity
CC1=CC(Oc2ccc(I)cc2I)OC1=O (stereo not shown) [2-17],activity of inhibiting the morphology of the tiller,rice d10 variant; [4],high activity
CC1=CC(Oc2ccc(Cl)cc2Cl)OC1=O (stereo not shown) [2-2],activity of inhibiting the morphology of the tiller,rice d10 variant; [5],high activity
same,activity of inhibiting the morphology of the tiller,rice d10 variant; [4],high activity
CC1=CC(Oc2cccc(Cl)c2Cl)OC1=O (stereo not shown) [2-1],activity of inhibiting the morphology of the tiller,rice d10 variant; [5],high activity
CC1=CC(OC=C2C(=O)OC3C4=C(CCCC4(C)C)CC23)OC1=O (stereo not shown) [5-DS],half-life,[3],approximately 1.5 days
"CC1=CC(OC=C2C(=O)OC3c4ccccc4CC23)OC1=O (stereo not shown) [GR24, reference compound]",activity of inhibiting the morphology of the tiller of the max3 variant,[2],exhibited the activity of inhibiting the morphology of the tiller of the max3 variant
same,half-life,[3],approximately 10 days
CC1=CC(Oc2ccccc2F)OC1=O (stereo not shown) [o-FPMF],activity of inhibiting the morphology of the tiller,rice d10 variant; [4],high activity
CC1=CC(Oc2ccc(F)cc2F)OC1=O (stereo not shown) [2-16],activity of inhibiting the morphology of the tiller,rice d10 variant; [4],high activity
CC1=CC(Oc2cc(Cl)ccc2Cl)OC1=O (stereo not shown) [2-3],activity of inhibiting the morphology of the tiller,rice d10 variant; [5],high activity
CC1=CC(Oc2ccccc2Br)OC1=O (stereo not shown) [o-BPMF],parasitic weed germination-inducing activity,parasitic weed,stronger parasitic weed germination-inducing activity than that of p-BPMF
same,tiller inhibitory activity,rice d10 variant; result not shown,weak tiller inhibitory activity
same,activity of inhibiting the morphology of the tiller,rice d10 variant; [4],high activity
CC1=CC(Oc2ccc(Br)cc2Br)OC1=O (stereo not shown) [2-6],activity of inhibiting the morphology of the tiller,rice d10 variant; [4],high activity
CC1=CC(Oc2ccccc2Cl)OC1=O (stereo not shown) [o-CPMF],activity of inhibiting the morphology of the tiller,rice d10 variant; [4],high activity
CC1=CC(Oc2ccc3ccccc3c2)OC1=O (stereo not shown) [NaMF],activity of inhibiting the morphology of the tiller,"rice d10 variant; 6 days in hydroponic solution with compound at 1 µM, 100 nM or 10 nM (Figure 2)",slightly weaker than that of the other compounds
